Results from PubChem BioAssay (NCI).
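Step 1: Grow cells in 96-well plates. Step 2: Expose to compound for 48 hours at 5 concentrations. Step 3: Interpolate endpoints linearly; if unreached, use highest concentration. TGI: total growth inhibition.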

Columns and labels:
Test in all cases: DTP human tumour cell line panel, 48 h
LOX IMVI melanoma = test system: LOX IMVI melanoma
HCT-15 colon = test system: HCT-15 colon
SF-268 CNS = test system: SF-268 CNS
NCI-H460 lung = test system: NCI-H460 lung
786-0 renal = test system: 786-0 renal
HOP-62 NSCLC = test system: HOP-62 NSCLC
MDA-MB-231 breast = test system: MDA-MB-231 breast
NCI-H522 lung = test system: NCI-H522 lung
COLO 205 colon = test system: COLO 205 colon
NCI/ADR-RES ovarian = test system: NCI/ADR-RES ovarian
MOLT-4 leukemia = test system: MOLT-4 leukemia
RPMI-8226 leukemia = test system: RPMI-8226 leukemia
SR leukemia = test system: SR leukemia
HL-60(TB) leukemia = test system: HL-60(TB) leukemia
ACHN renal = test system: ACHN renal
EKVX NSCLC = test system: EKVX NSCLC
MCF7 breast = test system: MCF7 breast
OVCAR-4 ovarian = test system: OVCAR-4 ovarian
KM12 colon = test system: KM12 colon

In the case of O=C(/C=C/c1cccs1)c1cccc(C(=O)/C=C/c2cccs2)n1, the TGI (LOX IMVI melanoma) is reported as 7.34 µM, the TGI (HCT-15 colon) is reported as greater than 100 µM and the TGI (SF-268 CNS) is reported as greater than 68.5 µM. For the same molecule, the TGI (NCI-H460 lung) was greater than 100 µM, the TGI (786-0 renal) was 38.2 µM and the TGI (HOP-62 NSCLC) was greater than 100 µM. The TGI (MDA-MB-231 breast) was greater than 100 µM, the TGI (NCI-H522 lung) was greater than 100 µM and the TGI (COLO 205 colon) was greater than 100 µM. It also gave a TGI (NCI/ADR-RES ovarian) greater than 100 µM, a TGI (MOLT-4 leukemia) of 6.54 µM and a TGI (RPMI-8226 leukemia) of 16 µM. The TGI (SR leukemia) was greater than 24.6 µM, the TGI (HL-60(TB) leukemia) was 43 µM and the TGI (ACHN renal) was greater than 100 µM. For the same molecule, the TGI (EKVX NSCLC) was greater than 100 µM, the TGI (MCF7 breast) was greater than 100 µM and the TGI (OVCAR-4 ovarian) was greater than 100 µM. It also gave a TGI (KM12 colon) greater than 66.3 µM.

With NCCCc1c(-c2ccccc2)nc(N)[nH]c1=O the TGI (LOX IMVI melanoma) was greater than 100 µM, the TGI (HCT-15 colon) was greater than 100 µM and the TGI (SF-268 CNS) was greater than 100 µM. It also gave a TGI (NCI-H460 lung) greater than 100 µM, a TGI (786-0 renal) greater than 100 µM and a TGI (HOP-62 NSCLC) greater than 100 µM. For the same molecule, the TGI (MDA-MB-231 breast) was greater than 100 µM, the TGI (NCI-H522 lung) was greater than 100 µM and the TGI (COLO 205 colon) was greater than 100 µM. It also gave a TGI (NCI/ADR-RES ovarian) greater than 100 µM, a TGI (MOLT-4 leukemia) greater than 100 µM and a TGI (RPMI-8226 leukemia) greater than 100 µM. It also gave a TGI (SR leukemia) greater than 100 µM, a TGI (HL-60(TB) leukemia) greater than 100 µM and a TGI (ACHN renal) greater than 100 µM. For the same molecule, the TGI (EKVX NSCLC) was greater than 100 µM, the TGI (MCF7 breast) was greater than 100 µM and the TGI (OVCAR-4 ovarian) was greater than 100 µM. The TGI (KM12 colon) was greater than 100 µM.

Molecule Cc1ccc(O)c(-c2csc(NCN3CCN(CNc4nc(-c5cc(C)ccc5O)cs4)CC3)n2)c1 has a TGI (LOX IMVI melanoma) greater than 100 µM, a TGI (HCT-15 colon) greater than 100 µM and a TGI (SF-268 CNS) greater than 100 µM. The TGI (NCI-H460 lung) was greater than 100 µM, the TGI (786-0 renal) was greater than 100 µM and the TGI (HOP-62 NSCLC) was greater than 100 µM. For the same molecule, the TGI (MDA-MB-231 breast) was greater than 100 µM, the TGI (NCI-H522 lung) was greater than 100 µM and the TGI (COLO 205 colon) was greater than 100 µM. It also gave a TGI (NCI/ADR-RES ovarian) greater than 100 µM, a TGI (MOLT-4 leukemia) greater than 100 µM and a TGI (RPMI-8226 leukemia) greater than 100 µM. It also gave a TGI (SR leukemia) greater than 100 µM, a TGI (HL-60(TB) leukemia) greater than 100 µM and a TGI (ACHN renal) greater than 100 µM. For the same molecule, the TGI (EKVX NSCLC) was greater than 100 µM, the TGI (MCF7 breast) was greater than 100 µM and the TGI (OVCAR-4 ovarian) was greater than 100 µM. For the same molecule, the TGI (KM12 colon) was greater than 100 µM.

For CCOP(=O)(OCC)/C(C#N)=C/c1cccn1N(C)C, the TGI (LOX IMVI melanoma) was greater than 100 µM, the TGI (HCT-15 colon) was greater than 100 µM and the TGI (SF-268 CNS) was greater than 100 µM. It also gave a TGI (NCI-H460 lung) greater than 100 µM, a TGI (786-0 renal) greater than 100 µM and a TGI (HOP-62 NSCLC) greater than 100 µM. It also gave a TGI (MDA-MB-231 breast) greater than 100 µM, a TGI (NCI-H522 lung) greater than 100 µM and a TGI (COLO 205 colon) greater than 100 µM. The TGI (NCI/ADR-RES ovarian) was greater than 100 µM, the TGI (MOLT-4 leukemia) was greater than 100 µM and the TGI (RPMI-8226 leukemia) was greater than 100 µM. The TGI (SR leukemia) was greater than 100 µM, the TGI (HL-60(TB) leukemia) was greater than 100 µM and the TGI (ACHN renal) was greater than 100 µM. It also gave a TGI (EKVX NSCLC) greater than 100 µM, a TGI (MCF7 breast) greater than 100 µM and a TGI (OVCAR-4 ovarian) greater than 100 µM. The TGI (KM12 colon) was greater than 100 µM.

For O=c1[nH]c2ccc(CC(=S)N3CCN(c4ccccc4)CC3)cc2o1, the TGI (LOX IMVI melanoma) was greater than 100 µM, the TGI (HCT-15 colon) was greater than 100 µM and the TGI (SF-268 CNS) was greater than 100 µM. The TGI (NCI-H460 lung) was greater than 100 µM, the TGI (786-0 renal) was greater than 100 µM and the TGI (HOP-62 NSCLC) was greater than 100 µM. For the same molecule, the TGI (MDA-MB-231 breast) was greater than 100 µM, the TGI (NCI-H522 lung) was greater than 100 µM and the TGI (COLO 205 colon) was greater than 100 µM. The TGI (NCI/ADR-RES ovarian) was greater than 100 µM, the TGI (MOLT-4 leukemia) was greater than 100 µM and the TGI (RPMI-8226 leukemia) was greater than 100 µM. For the same molecule, the TGI (SR leukemia) was greater than 100 µM, the TGI (HL-60(TB) leukemia) was greater than 100 µM and the TGI (ACHN renal) was greater than 100 µM. For the same molecule, the TGI (EKVX NSCLC) was greater than 100 µM, the TGI (MCF7 breast) was greater than 100 µM and the TGI (OVCAR-4 ovarian) was greater than 100 µM. The TGI (KM12 colon) was greater than 100 µM.

Molecule O=C1OC(C2OC(=O)c3cc(O)c(O)c(O)c3-c3c(O)c(O)c4oc(=O)c5c(c(O)c(O)c6oc(=O)c3c4c65)-c3c(cc(O)c(O)c3O)C(=O)OCC2O)C2OC(=O)c3c(c(O)c(O)c(O)c3[C@H]2O)-c2c1cc(O)c(O)c2O (some centres undefined) has a TGI (LOX IMVI melanoma) of 35.5 µM, a TGI (HCT-15 colon) of 33.3 µM and a TGI (SF-268 CNS) of 78.5 µM. The TGI (NCI-H460 lung) was greater than 100 µM, the TGI (786-0 renal) was 44.9 µM and the TGI (HOP-62 NSCLC) was greater than 100 µM. The TGI (MDA-MB-231 breast) was 33.7 µM, the TGI (NCI-H522 lung) was 44.5 µM and the TGI (COLO 205 colon) was 36.6 µM. The TGI (NCI/ADR-RES ovarian) was 73.5 µM, the TGI (MOLT-4 leukemia) was 65.3 µM and the TGI (RPMI-8226 leukemia) was 76.9 µM. For the same molecule, the TGI (SR leukemia) was 43.4 µM, the TGI (HL-60(TB) leukemia) was 38.8 µM and the TGI (ACHN renal) was 80.3 µM. The TGI (EKVX NSCLC) was 41 µM, the TGI (MCF7 breast) was 21.5 µM and the TGI (OVCAR-4 ovarian) was 46 µM. It also gave a TGI (KM12 colon) of 63 µM.
